Experimental data: patent US11396517B1, “Exo-aza spiro inhibitors of menin-MLL interaction” (Janssen Pharmaceutica NV, priority 2017, dated 2022)

Assays:
Type in all cases: cell-based, human
MV-4-11 [1] = assay: Proliferation assay B (spheroid assay) MV-4-11; conditions: Homo sapiens, MV4-11, 192 h, MV-4-11 cells, confluence at day 8, absolute IC50; read-out: (3b) Spheroid assay MV-4--11 (IC50(μM)) Assay B
Outline: (§1)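 IC50 derived from % effect on day-8 imaged confluence, scaled between DMSO-treated cells (high) and 1 μM staurosporine (low), using a variable-slope fit constrained 0-100%. Cells seeded as spheroids in ultra-low-attachment plates and exposed to compound for 8 days, 0.3% DMSO.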

MOLM14 [2] = assay: Proliferation assay B (spheroid assay) MOLM14; conditions: MOLM14 cells, confluence at day 8, absolute IC50, read-out: (3b) Spheroid assay MOLM14 (IC50(μM)) Assay B
Outline: as §1

MOLM14 [3] = assay: Proliferation assay A (spheroid assay) MOLM14; conditions: Homo sapiens, MOLM-14, 192 h, MOLM14 cells, 8 d, AUC of confluence against time, absolute IC50; read-out: (3a) Spheroid assay MOLM14 (IC50(μM)) Assay A
Outline: (§2)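 Spheroid growth in ultra-low-attachment round-bottom wells (1,500 MV-4-11, 300 MOLM14 or 750 K562 cells), compound titration at 0.3% DMSO, 8 d at 37° C. Confluence imaged every 4 h; AUC from t=0 baseline expressed as % of DMSO control and fitted for absolute IC50.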

MV-4-11 [4] = assay: Proliferation assay A (spheroid assay) MV-4-11; conditions: MV-4-11 cells, 8 d, AUC of confluence against time, absolute IC50, read-out: (3a) Spheroid assay MV-4-11 (IC50(μM)) Assay A
Outline: as §2

| IC50 (MV-4-11 [1]) [µM] | IC50 (MOLM14 [2]; Homo sapiens, MOLM-14, 192 h) [µM] | IC50 (MOLM14 [3]) [µM] | IC50 (MV-4-11 [4]; Homo sapiens, MV4-11, 192 h) [µM] | IC50 (MV-4-11 [4]) [µM] | IC50 (MOLM14 [2]) [µM] | Structure (SMILES) |
| --- | --- | --- | --- | --- | --- | --- |
| 2.62 | > 3.75 | 3.98 | 2.13 | – | – | FC(F)(F)Cc1cc2c(N3CCC4(CC(Nc5ccc6cc[nH]c6c5)C4)C3)ncnc2s1 (mixture of isomers) [Compound 311] |
| 0.11 | 0.2 | – | – | 0.03 | – | O=c1[nH]c2cc(CNC3CCC4(C3)CN(c3ncnc5sc(CC(F)(F)F)cc35)C4)ccc2o1 (single isomer, unassigned) [Compound 58] |
| 0.26 | 1.05 | 0.82 | 0.16 | – | – | Cn1c(=O)[nH]c2cc(CNC3CCC4(C3)CN(c3ncnc5sc(CC(F)(F)F)cc35)C4)ccc21 (stereo not drawn) [Compound 54] |
| 0.16 | – | 0.7 | 0.09 | – | 0.62 | CNC(=O)c1ccc(NC2CC3(CCN(c4ncnc5sc(CC(F)(F)F)cc45)C3)C2)cc1 (stereo not drawn) [Compound 93] |
